Source: patent publication EP0183129A1, “Quinolonecarboxylic acid derivatives” (KYORIN PHARMACEUTICAL CO., LTD., priority 1984, dated 1986)
≈ marks a conversion by molar mass, not a printed value. Counter-ions that a name gives are not always drawn. Like-named read-outs stand apart in the source and are kept apart here.

Key:
[1] = tested on: Pseudomonas aeruginosa V-1; assay: In vitro antibacterial activity, MIC (standard strain); assay type: cell-based; settings: V1
E. coli ML4707 = assay: In vivo antibacterial activity against systemic infection in mice; parameters: species or system mice (ICR-S); settings: Escherichia coli, ML4707; mice (ICR-S); oral, an hour after intraperitoneal infection; challenge dose 2.7 x 10^6 ~ 8.8 x 10^6 cfu/mouse; read-out: ED50 E. coli ML4707
Protocol: Experiment-2 In vivo antibacterial activity against systemic infection in mice (ICR-S)
The infections were produced by intraperitoneal injection of a suspension of the bacterial culture corresponding to the germ studied. The products were administered orally at an hour after the infection.

S. agalactiae 4049 = assay: In vitro antibacterial activity, MIC (clinical isolates); assay type: cell-based; settings: Streptococcus agalactiae; S. agalactiae 4049; 10^6 cells/ml; clinical isolate; read-out: MIC
S. pneumoniae 24 = assay: as above; assay type: cell-based; settings: Streptococcus pneumoniae; S. pneumoniae 24; 10^6 cells/ml; clinical isolate; read-out: MIC
[2] = tested on: S. aureus IID 670 (Terajima); assay: In vitro antibacterial activity, MIC (standard strain); assay type: cell-based, Staphylococcus aureus; settings: Staphylococcus aureus
[3] = tested on: Serratia marcescens IID 618; assay: as above; assay type: cell-based; settings: Serratia marcescens, IID618, Serratia marcescens IID 618; 10^6 cells/ml; standard strain; read-out: MIC
[4] = tested on: Citrobacter freundii IID 976; assay: as above; assay type: cell-based; settings: IID976; Citrobacter freundii IID 976; 10^6 cells/ml; standard strain; read-out: MIC
S. pyogenes 3107 = assay: In vitro antibacterial activity, MIC (clinical isolates); assay type: cell-based; settings: Streptococcus pyogenes; S. pyogenes 3107; 10^6 cells/ml; clinical isolate; read-out: MIC
S. pyogenes 4340 = assay: as above; assay type: cell-based; settings: Streptococcus pyogenes; S. pyogenes 4340; 10^6 cells/ml; clinical isolate; read-out: MIC
[5] = tested on: Alcaligenes faecalis 0104002; assay: In vitro antibacterial activity, MIC (standard strain); assay type: cell-based
S. faecalis 401 = assay: In vitro antibacterial activity, MIC (clinical isolates); assay type: cell-based; settings: Enterococcus faecalis; S. faecalis 401; 10^6 cells/ml; clinical isolate; read-out: MIC
[6] = tested on: Escherichia coli NIHJ JC-2; assay: In vitro antibacterial activity, MIC (standard strain); assay type: cell-based; settings: Escherichia coli
[7] = tested on: Morganella morganii IID 602; assay: as above; assay type: cell-based; settings: IID602; Morganella morganii IID 602; 10^6 cells/ml; standard strain; read-out: MIC
M. pneumoniae Mac. = assay: In vitro antibacterial activity against Mycoplasma, MIC; assay type: cell-based; settings: Mycoplasmoides pneumoniae, 120 h; M. pneumoniae Mac.; no visible growth after incubation for 5 days; read-out: MIC
From the text: Experiment-3 In vitro antibacterial activity against Mycoplasma

P. mirabilis IID 994 = assay: In vitro antibacterial activity, MIC (standard strain); assay type: cell-based; settings: Proteus mirabilis, IID994; P. mirabilis IID 994; 10^6 cells/ml; standard strain; read-out: MIC
[8] = tested on: Proteus vulgaris IFO 3167; assay: as above; assay type: cell-based; settings: IFO3167; Proteus vulgaris IFO 3167; 10^6 cells/ml; standard strain; read-out: MIC
B. fragilis 0558 = assay: as above; assay type: cell-based, Bacteroides fragilis; settings: Bacteroides fragilis, 0558, B. fragilis 0558; 10^6 cells/ml; standard strain; read-out: MIC
S. agalactiae 4368 = assay: In vitro antibacterial activity, MIC (clinical isolates); assay type: cell-based; settings: Streptococcus agalactiae; S. agalactiae 4368; 10^6 cells/ml; clinical isolate; read-out: MIC
Shigella sonnei IID 969 = assay: In vitro antibacterial activity, MIC (standard strain); assay type: cell-based; settings: IID969, 10^6 cells/ml
Protocol: Experiment-1 In vitro antibacterial activity
The in vitro antibacterial activity against gram-positive and gram-negative bacteria has been investivated.
The minimum inhibitory concentration (MIC) was determined in accordance with the method recommended by Japan Society of Chemotherapy.

S. pyogenes IID 692 = assay: as above; assay type: cell-based; settings: Streptococcus pyogenes, IID692; S. pyogenes IID 692; 10^6 cells/ml; standard strain; read-out: MIC
P. aeruginosa IFO 12689 = assay: as above; assay type: cell-based, Pseudomonas aeruginosa; settings: Pseudomonas aeruginosa, IFO12689; P. aeruginosa IFO 12689; 10^6 cells/ml; standard strain; read-out: MIC
[9] = tested on: Bacteroides fragilis GM 7000; assay: as above; assay type: cell-based; settings: GM7000; Bacteroides fragilis GM 7000; 10^6 cells/ml; standard strain; read-out: MIC
S. pneumoniae 2054 = assay: In vitro antibacterial activity, MIC (clinical isolates); assay type: cell-based; settings: Streptococcus pneumoniae; S. pneumoniae 2054; 10^6 cells/ml; clinical isolate; read-out: MIC
C. ramosum = assay: In vitro antibacterial activity, MIC (standard strain); assay type: cell-based; settings: Thomasclavelia ramosa; C. ramosum; 10^6 cells/ml; standard strain; read-out: MIC
S. faecalis 214 = assay: In vitro antibacterial activity, MIC (clinical isolates); assay type: cell-based; settings: Enterococcus faecalis; S. faecalis 214; 10^6 cells/ml; clinical isolate; read-out: MIC
S. pneumoniae 2950 = assay: as above; assay type: cell-based; settings: Streptococcus pneumoniae; S. pneumoniae 2950; 10^6 cells/ml; clinical isolate; read-out: MIC
C. difficile I-E = assay: In vitro antibacterial activity, MIC (standard strain); assay type: cell-based; settings: Clostridioides difficile; C. difficile I-E; 10^6 cells/ml; standard strain; read-out: MIC
[10] = Pseudomonas aeruginosa V-1, 10^6 cells/ml, standard strain, read-out: MIC
[11] = IID670, S. aureus IID 670 (Terajima), 10^6 cells/ml, standard strain, read-out: MIC
[12] = Alcaligenes faecalis, 0104002, Alcaligenes faecalis 0104002, 10^6 cells/ml, standard strain, read-out: MIC
[13] = NIHJJC2, Escherichia coli NIHJ JC-2, 10^6 cells/ml, standard strain, read-out: MIC

SMILES | MIC [1, 10] | MIC (S. agalactiae 4049) | MIC [2, 11] | MIC [3] | MIC [4] | MIC (S. pyogenes 3107) | MIC (S. pyogenes 4340) | MIC (S. faecalis 401) | MIC [7] | MIC (P. mirabilis IID 994) | MIC [8] | MIC (B. fragilis 0558) | MIC (S. agalactiae 4368) | MIC (Shigella sonnei IID 969) | MIC (S. pyogenes IID 692) | MIC (P. aeruginosa IFO 12689) | MIC [9] | MIC (S. pneumoniae 2054) | MIC (C. ramosum) | MIC (S. faecalis 214) | also measured
CNCC1CCN(c2c(F)cc3c(=O)c(C(=O)O)cn(C4CC4)c3c2Cl)C1 (stereo not drawn) [Example 12, 8-Chloro-l-cyclopropyl-6-fluoro-1,4-dihydro-7-(3-methylaminomethyl-1-pyrrolidinyl)-4-oxo-3-quinolinecarboxylic acid hydrochloride] | 0.39 µg/mL | 0.05 µg/mL | 0.025 µg/mL | 0.1 µg/mL | 0.05 µg/mL | 0.05 µg/mL | 0.05 µg/mL | 0.1 µg/mL | 0.1 µg/mL | 0.025 µg/mL | 0.025 µg/mL | 0.1 µg/mL | 0.05 µg/mL | 0.025 µg/mL | 0.05 µg/mL | 0.78 µg/mL | 0.2 µg/mL | 0.05 µg/mL | 0.39 µg/mL | 0.1 µg/mL | ED50 (E. coli ML4707): 1.9 mg/kg; MIC (S. pneumoniae 24): 0.05 µg/mL; MIC [5, 12]: 0.39 µg/mL; MIC [6, 13]: 0.025 µg/mL; MIC (M. pneumoniae Mac.): 0.05 µg/mL
CCNCC1CCN(c2c(F)cc3c(=O)c(C(=O)O)cn(CC)c3c2F)C1 (stereo not drawn) [Ref.1, 1-Ethyl-7-(3-ethylaminomethyl-1-pyrrolidinyl)-6,8-difluoro-1,4-dihydro-4-oxo-3-quinolinecarboxylic acid, reference compound] | 6.25 µg/mL (≈ 16.5 µM) | 0.39 µg/mL (≈ 1.03 µM) | 0.1 µg/mL (≈ 0.264 µM) | 0.39 µg/mL (≈ 1.03 µM) | 0.2 µg/mL (≈ 0.527 µM) | 0.1 µg/mL (≈ 0.264 µM) | 0.2 µg/mL (≈ 0.527 µM) | 0.39 µg/mL (≈ 1.03 µM) | 0.78 µg/mL (≈ 2.06 µM) | 0.2 µg/mL (≈ 0.527 µM) | 0.05 µg/mL (≈ 0.132 µM) | 6.25 µg/mL (≈ 16.5 µM) | 0.2 µg/mL (≈ 0.527 µM) | 0.1 µg/mL (≈ 0.264 µM) | 0.39 µg/mL (≈ 1.03 µM) | 6.25 µg/mL (≈ 16.5 µM) | 12.5 µg/mL (≈ 32.9 µM) | 0.39 µg/mL (≈ 1.03 µM) | 6.25 µg/mL (≈ 16.5 µM) | 0.39 µg/mL (≈ 1.03 µM) | ED50 (E. coli ML4707): > 10 mg/kg; MIC [5, 12]: 12.5 µg/mL (≈ 32.9 µM); MIC [6, 13]: 0.1 µg/mL (≈ 0.264 µM); MIC (S. pneumoniae 2950): 0.39 µg/mL (≈ 1.03 µM); MIC (M. pneumoniae Mac.): 0.39 µg/mL (≈ 1.03 µM)
CNCC1CCN(c2cc3c(cc2F)c(=O)c(C(=O)O)cn3C2CC2)C1 (stereo not drawn) [Example 9, 1-Cyclopropyl-6-fluoro-1,4-dihydro-7-(3-methylaminomethyl-l-pyrrolidinyl)-4-oxo-3-quinolinecarboxylic acid hydrochloride] |  | 0.78 µg/mL | 0.2 µg/mL | 0.39 µg/mL | 0.2 µg/mL | 0.1 µg/mL | 0.2 µg/mL | 0.78 µg/mL | 0.78 µg/mL | 0.39 µg/mL | 0.1 µg/mL | 12.5 µg/mL | 0.2 µg/mL | 0.1 µg/mL | 0.2 µg/mL | 3.13 µg/mL | 25 µg/mL | 0.78 µg/mL | 12.5 µg/mL | 0.39 µg/mL | MIC ([1]; Pseudomonas aeruginosa): 1.56 µg/mL; MIC ([5]; Alcaligenes faecalis, 0104002): 1.56 µg/mL; MIC [6, 13]: 0.05 µg/mL; MIC (S. pneumoniae 2950): 0.78 µg/mL; MIC (C. difficile I-E): 12.5 µg/mL
NCC1CCN(c2c(F)cc3c(=O)c(C(=O)O)cn(C4CC4)c3c2F)C1 (stereo not drawn) [Example 1, 7-(3-Aminomethyl-l-pyrrolidinyl)-l-cyclopropyl-6,8-difluoro-1,4-dihydro-4-oxo-3-quinolinecarboxylic acid hydrochloride] | 0.39 µg/mL | 0.05 µg/mL | 0.05 µg/mL | 0.2 µg/mL | 0.05 µg/mL | 0.05 µg/mL | 0.05 µg/mL | 0.1 µg/mL | 0.1 µg/mL | 0.05 µg/mL | 0.025 µg/mL | 0.39 µg/mL | 0.05 µg/mL | 0.025 µg/mL | 0.05 µg/mL | 0.39 µg/mL | 0.78 µg/mL | 0.05 µg/mL | 0.78 µg/mL | 0.1 µg/mL | MIC (S. pneumoniae 24): 0.05 µg/mL; MIC [5, 12]: 0.39 µg/mL; MIC [6, 13]: 0.025 µg/mL; MIC (S. pneumoniae 2950): 0.05 µg/mL; MIC (C. difficile I-E): 1.56 µg/mL
CCCNCC1CCN(c2c(F)cc3c(=O)c(C(=O)O)cn(C4CC4)c3c2F)C1 (stereo not drawn) [Example 10, 1-Cyclopropyl-6,8-difluoro-1,4-dihydro-4-oxo-7-(3-n-propylaminomethyl-l-pyrrolidinyl)-3-quinolinecarboxylic acid hydrochloride] | 1.56 µg/mL | 0.78 µg/mL | 0.05 µg/mL | 0.2 µg/mL | 0.05 µg/mL | 0.2 µg/mL | 0.2 µg/mL | 0.78 µg/mL | 0.025 µg/mL | 0.025 µg/mL | 0.025 µg/mL | 0.78 µg/mL | 0.39 µg/mL | 0.025 µg/mL | 0.39 µg/mL | 3.13 µg/mL | 1.56 µg/mL | 0.78 µg/mL | 1.56 µg/mL | 0.39 µg/mL | MIC [5, 12]: 0.78 µg/mL; MIC [6, 13]: 0.05 µg/mL; MIC (S. pneumoniae 2950): 0.39 µg/mL; MIC (C. difficile I-E): 6.25 µg/mL
NCC1CCN(c2c(F)cc3c(=O)c(C(=O)O)cn(C4CC4)c3c2Cl)C1 (stereo not drawn) [Example 14, 8-Chloro-l-cyclopropyl-6-fluoro-l,4-dihydro-7-(3-aminomethyl-l-pyrrolidinyl)-4-oxo-3-quinolinecarboxylic acid hydrochloride] | 0.2 µg/mL | 0.05 µg/mL |  | 0.05 µg/mL | 0.025 µg/mL | 0.025 µg/mL | 0.05 µg/mL | 0.05 µg/mL | 0.05 µg/mL | 0.025 µg/mL | 0.025 µg/mL | 0.05 µg/mL | 0.05 µg/mL | 0.0125 µg/mL | 0.05 µg/mL | 0.39 µg/mL | 0.1 µg/mL | 0.05 µg/mL | 0.39 µg/mL | 0.05 µg/mL | ED50 (E. coli ML4707): 5.4 mg/kg; MIC (S. pneumoniae 24): 0.05 µg/mL; MIC ([2]; IID670): 0.0125 µg/mL; MIC [5, 12]: 0.2 µg/mL; MIC ([6]; NIHJJC2): 0.0125 µg/mL
